Data on one compound can be found in patent publication US20260364056A1, “METHODS OF TREATMENT OF NON-PANCREATIC GASTROINTESTINAL CANCERS” (IONCTURA bv, priority 2023, published 2026).

For assay [1], the system named is KKU-M213 cells. The assay is described as follows: Crystal violet staining and morphology under inverted light microscope. Type of assay: cell-based, human. The conditions noted are these: 3, 9 and 12 μM, 72 h.
The subject of assay [2] is lung fibrosis. As to conditions: compared with GLPG1690; cited from earlier work.
The test system of assay [3] is xenografted tumours of KKUM-213 cells and human cancer-associated fibroblasts. Put plainly: Tumour growth in vivo, mouse xenograft model of cholangiocarcinoma. As to conditions: 10 mg/kg twice daily, oral gavage, from 5th day, vs vehicle, n=5, Mann-Whitney P<0.05. As for the experimental part: To further explore the activity of Compound 1 on gastrointestinal cancer cells in vivo, the effectiveness in a mouse model of cholangiocarcinoma was investigated. Xenografted tumours were produced by co-injection of KKUM-213 cells and human cancer-associated fibroblasts (CAFs). Starting from the 5th day the mice were treated twice daily with Compound 1 (10 mg/kg) or vehicle (1% (w/v) methylcellulose in water) by oral gavage. The tumour volumes were monitored twice a week until the animals were sacrificed. […] Data are presented as the mean±SD (n=5 mice per group; Mann-Whitney test:*P<0.05).

For assay [4], the system named is ATX. As to conditions: cited from earlier work.
Assay [5] concerns HLE cells. Put plainly: Annexin V staining (early apoptosis). Type of assay: cell-based, human. The conditions noted are these: 9 and 12 mM (so in the source), 4 h, serum-free; same effect = significantly (p<0.05) induced cell apoptosis. As for the experimental part: (§1) For detection of early apoptosis the Annexin V-FITC kit (Miltenyi Biotech) was used. Cells were seeded and grown on Nunc Lab-Tek II Chamber Slide. After a wash with PBS, cells were incubated with Compound 1 3, 9 and 12 μM in serum-free medium. After […] cells were washed with Binding Buffer (BB) and stained with a solution of Annexin V-FITC antibody in BB for 15′. After 2 washes with BB the cells were fixed with a 4% paraformaldehyde solution and a coverslip was mounted onto the slide using a DAPI Ready Made Solution with Antifade (Merck). Images were acquired using a confocal microscope Nikon Eclipse Ti2 and analysed with image-J.
(§2) Fluorescence microscopy of cells treated with 3, 9 and 12 μM Compound 1 for 4 h and stained with Annexin V-FITC antibody. Annexin V positive cells are early apoptotic cells. Green fluorescence (Annexin V) was quantified using ImageJ software and correlated to DAPI blue fluorescence (nuclei).
(§3) To further explore the activity of Compound 1 on gastrointestinal cancer cells, the effectiveness on cell apoptosis was investigated. Following incubation with Compound 1, cells underwent morphological changes of cell shrinkage and cytoplasmic vacuolization (FIG. 1C). An early event in apoptosis is represented by the loss of plasma membrane asymmetry, resulting in the translocation of phosphatidylserine (PS) from the inner to the outer plasma membrane leaflet. Exposed PS on the cell surface can be used to measure apoptosis by the binding with Annexin V. KKU-M213, HLE and HT-29 cells were incubated with increasing concentrations of Compound 1 (3, 9 and 12 μM). After 4 hours, cells were stained with a FITC-Annexin V antibody and fixed. […] Moreover, a human apoptosis antibody array was used to identify the differential expression of 43 apoptosis-related proteins in cells treated with 12 μM Compound 1 for 24 h compared to untreated cells.

In assay [6] the test system is HT-29 cells. The assay is described as follows: Annexin V staining (early apoptosis). Type of assay: cell-based, human. As to conditions: 3, 9 and 12 mM (so in the source), 4 h, serum-free, dose dependent. As to the method:
as §1, §2, §3

Assay [7] relates to KKU-M213 cells. Put plainly: Annexin V staining (early apoptosis). Type of assay: cell-based, human. The conditions noted are these: 3, 9 and 12 mM (so in the source), 4 h, serum-free, dose dependent. As for the experimental part: as §1, §2, §3

Turning to `C[C@H](NC(=O)CCc1nc2cccnc2n1Cc1ccc(OC(F)(F)F)cc1)c1ccc(Cl)cc1` [Compound 1, N-[(S)-1-(4-chloro-phenyl)-ethyl]-3-[3-(4-trifluoromethoxy-benzyl)-3H-imidazo[4,5-b]pyridin-2-yl]-propionamide], the morphological changes result in assay [1] was “cells exhibit morphological changes and characteristics of apoptosis such as cell shrinkage and cytoplasmic vacuolization”. In addition, in assay [2], the “reduction in fibrosis score” value is reported as “greater reduction in fibrosis score compared with GLPG1690”. Besides, the “tumour progression (tumour volume)” value in assay [3] is “significantly reduces tumour progression”. For the same compound, in assay [4], the “binding site on ATX” value was “does not bind to the catalytic zinc region of ATX but binds to both the substrate pocket and the LPA carrier channel”. The “induction of cell apoptosis (Annexin V)” value in assay [5] is reported as “the same effect was seen”; in assay [6], “significantly (p<0.05) induced cell apoptosis”; in assay [7], “significantly (p<0.05) induced cell apoptosis”.
